Test system: 966289-007-R4-J1-PDC complex spheroid viability
Experiment: Anticancer human tumor 966289-007-R4-J1-PDC patient-derived pancreatic adenocarcinoma cell line growth inhibition [GQUAD]
Conditions: for IC50: curve of first compound; for viability, T/C: stronger effect = lower value
Method in brief: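 Tumor cells were grown as complex spheroids with HUVEC endothelial cells and mesenchymal stem cells as stroma. G-quadruplex stabilizers were combined with targeted agents over half-log dilutions from near the clinical Cmax, or from 10 microM.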

[1] = second compound 0.0316 µM, first compound 0.0316 µM
[2] = second compound 0.0316 µM, first compound 0.1 µM
[3] = second compound 0.0316 µM, first compound 0.316 µM
[4] = second compound 0.0316 µM, first compound 1 µM
[5] = second compound 0.0316 µM, first compound 3.16 µM
[6] = second compound 0.0316 µM, first compound 10 µM
[7] = second compound 0.1 µM, first compound 0.0316 µM
[8] = second compound 0.1 µM, first compound 0.1 µM
[9] = second compound 0.1 µM, first compound 0.316 µM
[10] = second compound 0.1 µM, first compound 1 µM
[11] = second compound 0.1 µM, first compound 3.16 µM
[12] = second compound 0.1 µM, first compound 10 µM
[13] = second compound 0.316 µM, first compound 0.0316 µM
[14] = second compound 0.316 µM, first compound 0.1 µM
[15] = second compound 0.316 µM, first compound 0.316 µM
[16] = second compound 0.316 µM, first compound 1 µM
[17] = second compound 0.316 µM, first compound 3.16 µM
[18] = second compound 0.316 µM, first compound 10 µM
[19] = second compound 1 µM, first compound 0.0316 µM
[20] = second compound 1 µM, first compound 0.1 µM
[21] = second compound 1 µM, first compound 0.316 µM
[22] = second compound 1 µM, first compound 1 µM
[23] = second compound 1 µM, first compound 3.16 µM
[24] = second compound 1 µM, first compound 10 µM
[25] = second compound 3.16 µM, first compound 0.0316 µM
[26] = second compound 3.16 µM, first compound 0.1 µM
[27] = second compound 3.16 µM, first compound 0.316 µM
[28] = second compound 3.16 µM, first compound 1 µM
[29] = second compound 3.16 µM, first compound 3.16 µM
[30] = second compound 3.16 µM, first compound 10 µM
[31] = second compound 10 µM, first compound 0.0316 µM
[32] = second compound 10 µM, first compound 0.1 µM
[33] = second compound 10 µM, first compound 0.316 µM
[34] = second compound 10 µM, first compound 1 µM
[35] = second compound 10 µM, first compound 3.16 µM
[36] = second compound 10 µM, first compound 10 µM
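Note: spheroids exposed to the agents for seven days before readout.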
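Throughout, for viability, T/C: percent viability relative to DMSO vehicle control wells taken as 100%.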

Structure (SMILES): C=CCn1c(=O)c2cnc(Nc3ccc(N4CCN(C)CC4)cc3)nc2n1-c1cccc(C(C)(C)O)n1 + Cc1cnc(CNC(=O)c2c(=O)c3ccc(N4CCCN(C)CC4)nc3n3c2sc2ccccc23)cn1
- IC50 (second compound 0.0316 µM): 236 nM
- IC50 (second compound 0.1 µM): < 31.6 nM
- IC50 (second compound 0.316 µM): < 31.6 nM
- IC50 (second compound 1 µM): < 31.6 nM
- IC50 (second compound 3.16 µM): < 31.6 nM
- IC50 (second compound 10 µM): < 31.6 nM
- viability, T/C [1]: 105%
- viability, T/C [2]: 90%
- viability, T/C [3]: 36.5%
- viability, T/C [4]: 4.74%
- viability, T/C [5]: 1.95%
- viability, T/C [6]: 1.13%
- viability, T/C [7]: 29.4%
- viability, T/C [8]: 15.7%
- viability, T/C [9]: 8.35%
- viability, T/C [10]: 3.91%
- viability, T/C [11]: 2.06%
- viability, T/C [12]: 1.35%
- viability, T/C [13]: 6.91%
- viability, T/C [14]: 6.09%
- viability, T/C [15]: 5.08%
- viability, T/C [16]: 4.04%
- viability, T/C [17]: 2.11%
- viability, T/C [18]: 1.81%
- viability, T/C [19]: 4.63%
- viability, T/C [20]: 4.25%
- viability, T/C [21]: 3.87%
- viability, T/C [22]: 2.82%
- viability, T/C [23]: 1.24%
- viability, T/C [24]: 1.48%
- viability, T/C [25]: 2.9%
- viability, T/C [26]: 2.75%
- viability, T/C [27]: 2.77%
- viability, T/C [28]: 1.24%
- viability, T/C [29]: 0.09%
- viability, T/C [30]: 0.38%
- viability, T/C [31]: 0.06%
- viability, T/C [32]: 0.11%
- viability, T/C [33]: 0.12%
- viability, T/C [34]: 0.28%
- viability, T/C [35]: 0.46%
- viability, T/C [36]: 0.13%

Structure (SMILES): COc1ncnc(C2CC2)c1-c1ncc2cnn(Cc3ccc(-c4nc(C(F)(F)F)cn4C(C)C)cc3)c2n1 + Cc1cnc(CNC(=O)c2c(=O)c3ccc(N4CCCN(C)CC4)nc3n3c2sc2ccccc23)cn1
- IC50 (second compound 0.0316 µM): > 10000 nM
- IC50 (second compound 0.1 µM): < 31.6 nM
- IC50 (second compound 0.316 µM): < 31.6 nM
- IC50 (second compound 1 µM): < 31.6 nM
- IC50 (second compound 3.16 µM): < 31.6 nM
- IC50 (second compound 10 µM): < 31.6 nM
- viability, T/C [1]: 105%
- viability, T/C [2]: 94.2%
- viability, T/C [3]: 103%
- viability, T/C [4]: 92.9%
- viability, T/C [5]: 101%
- viability, T/C [6]: 97.3%
- viability, T/C [7]: 24.4%
- viability, T/C [8]: 24.1%
- viability, T/C [9]: 25.3%
- viability, T/C [10]: 23.8%
- viability, T/C [11]: 26.4%
- viability, T/C [12]: 29.3%
- viability, T/C [13]: 9.38%
- viability, T/C [14]: 10.1%
- viability, T/C [15]: 9.14%
- viability, T/C [16]: 10.4%
- viability, T/C [17]: 10.8%
- viability, T/C [18]: 10.4%
- viability, T/C [19]: 6.44%
- viability, T/C [20]: 5.74%
- viability, T/C [21]: 6.97%
- viability, T/C [22]: 5.21%
- viability, T/C [23]: 5.65%
- viability, T/C [24]: 7.13%
- viability, T/C [25]: 4.34%
- viability, T/C [26]: 4.38%
- viability, T/C [27]: 4.76%
- viability, T/C [28]: 4.44%
- viability, T/C [29]: 5.14%
- viability, T/C [30]: 5.37%
- viability, T/C [31]: 0.08%
- viability, T/C [32]: 0.13%
- viability, T/C [33]: 0.17%
- viability, T/C [34]: 0.16%
- viability, T/C [35]: 0.4%
- viability, T/C [36]: 0.41%

Source: PubChem BioAssay AID2060488 (Molecular Pharmacology Branch, DTP, NCI, 2025)
